Experiments:
CypA [1] = target: T1, CypA (Homo sapiens, UniProt P62937); test: SPR-based binding affinity assay; conditions: pH 7.4
CypA [2] = target: T1, CypA; test: biochemical
[3] = test system: mouse spleen cells induced by Con A; test: Proliferation of mouse spleen cells induced by Con A; type: cell-based; conditions: 72 h, read-out: Inhibitory rate (%)

T1 sequence (P62937 whole entry): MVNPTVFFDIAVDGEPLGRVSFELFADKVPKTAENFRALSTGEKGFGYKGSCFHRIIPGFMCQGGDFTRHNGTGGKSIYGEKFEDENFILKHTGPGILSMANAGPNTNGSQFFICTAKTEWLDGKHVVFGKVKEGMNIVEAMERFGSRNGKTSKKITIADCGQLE

| Structure (SMILES) | Kd (CypA [1]) [µM] | % inhibition at 10 μM (CypA [2]) [%] | other results |
| --- | --- | --- | --- |
| Cc1noc(NS(=O)(=O)c2ccc(NC(=O)c3ccnc(-c4ccc(Cl)cc4)c3)cc2)c1C [Compound 16n, 4-(2-(4-Chlorophenyl)-pyridine-4-carboxamido)-N-(3,4-dimethyl-isoxazol-5-yl) benzenesulfonamide] | 1.86 |  |  |
| Cc1noc(NS(=O)(=O)c2ccc(NC(=O)c3cc(-c4cccc(F)c4)nc4ccccc34)cc2)c1C [Compound 16a, 4-(2-(3-Fluorophenyl)-quinoline-4-carboxamido)-N-(3,4-dimethyl-isoxazol-5-yl) benzenesulfonamide] | 10.2 | 18.0 |  |
| Cc1noc(NS(=O)(=O)c2ccc(NC(=O)c3ccnc(-c4ccccc4)c3)cc2)c1C [Compound 16m, 4-(2-Phenyl-pyridine-4-carboxamido)-N-(3,4-dimethyl-isoxazol-5-yl) benzenesulfonamide] | 14.5 |  |  |
| Cc1noc(NS(=O)(=O)c2ccc(NC(=O)c3cc(-c4ccncc4)nc4ccccc34)cc2)c1C [Compound 16e, 4-(2-Pyridin-4-yl-quinoline-4-carboxamido)-N-(3,4-dimethyl-isoxazol-5-yl) benzenesulfonamide] | 10.6 | 40.0 |  |
| Cc1noc(NS(=O)(=O)c2ccc(NC(=O)c3cc(-c4cccc(Br)c4)nc4ccc(F)cc34)cc2)c1C [Compound 16i, 4-(2-(3-Bromophenyl)-6-fluoro-quinoline-4-carboxamido)-N-(3,4-dimethyl-isoxazol-5-yl) benzenesulfonamide] | 2.25 | 32.0 |  |
| Cc1noc(NS(=O)(=O)c2ccc(NC(=O)c3cc(-c4ccc(Br)cc4)nc4ccccc34)cc2)c1C [Compound 16c, 4-(2-(4-Bromophenyl)-quinoline-4-carboxamido)-N-(3,4-dimethyl-isoxazol-5-yl) benzenesulfonamide] | 4.11 | 10.0 |  |
| O=C(Nc1ccc(S(=O)(=O)Nc2cnc3ccccc3n2)cc1)c1ccccc1 [Compound 17b, 4-Benzamido-N-quinoxalin-2-yl benzenesulfonamide] | 23.4 | 5.6 |  |
| Cc1noc(NS(=O)(=O)c2ccc(NC(=O)Cc3ccc(Cl)cc3)cc2)c1C [Compound 17d, 4-(4-Chlorophenylacetamido)-N-(3,4-dimethyl-isoxazol-5-yl) benzenesulfonamide] | 0.35 |  |  |
| Cc1ccnc(NS(=O)(=O)c2ccc(NC(=O)c3ccnc(-c4ccccc4C)c3)cc2)n1 [Compound 16q, 4-(2-(2-Methylphenyl)-pyridine-4-carboxamido)-N-(4-methyl-pyrimidin-2-yl) benzenesulfonamide] | 340 |  |  |
| O=C(Cc1ccc(Cl)cc1Cl)Nc1ccc(S(=O)(=O)Nc2cnc3ccccc3n2)cc1 [Compound 17a, 4-(2,4-Dichlorophenylacetamido)-N-quinoxalin-2-yl benzenesulfonamide] | 37.7 |  |  |
| Cc1noc(NS(=O)(=O)c2ccc(NC(=O)c3cc(-c4cccs4)nc4ccccc34)cc2)c1C [Compound 16f, 4-(2-Thiophen-2-yl-quinoline-4-carboxamido)-N-(3,4-dimethyl-isoxazol-5-yl) benzenesulfonamide] | 91.3 | 30.0 |  |
| COC(=O)c1cc(Cc2ccc(NCc3ccccc3)c(C(=O)OC)c2)ccc1NCc1ccccc1 [Compound 18g, 6,6′-Bis-benzylamino-3,3′-methanediyl-di-benzoic acid dimethyl ester] |  |  | IC50 (CypA [2]): 6.23 µM; inhibition at 1 µM [3]: 1.2 ± 6.41%; inhibition at 10 µM [3]: 7.46 ± 4.13%; inhibition at 100 µM [3]: 28.8 ± 3.39% |
| O=C(Nc1ccc(S(=O)(=O)Nc2cnc3ccccc3n2)cc1)c1cc(-c2cccc(Br)c2)nc2ccccc12 [Compound 16j, 4-(2-(3-Bromophenyl)-quinoline-4-carboxamido)-N-quinoxalin-2-yl benzenesulfonamide] | 3.13 | 36.0 |  |
| Cc1noc(NS(=O)(=O)c2ccc(NC(=O)c3cc(-c4ccccc4Br)nc4ccccc34)cc2)c1C [Compound 16d, 4-(2-(2-Bromophenyl)-quinoline-4-carboxamido)-N-(3,4-dimethyl-isoxazol-5-yl) benzenesulfonamide] | 223 | 15.0 |  |
| Cc1noc(NS(=O)(=O)c2ccc(NC(=O)c3ccnc(-c4ccc(F)cc4)c3)cc2)c1C [Compound 16o, 4-(2-(4-Fluorophenyl)-pyridine-4-carboxamido)-N-(3,4-dimethyl-isoxazol-5-yl) benzenesulfonamide] | 42.4 | 26.0 |  |
| Cc1ccccc1-c1cc(C(=O)Nc2ccc(S(=O)(=O)Nc3onc(C)c3C)cc2)ccn1 [Compound 16p, 4-(2-(2-Methylphenyl)-pyridine-4-carboxamido)-N-(3,4-dimethyl-isoxazol-5-yl) benzenesulfonamide] | 7.61 |  |  |
| Cc1noc(NS(=O)(=O)c2ccc(NC(=O)c3cc(C4CCCCC4)nc4ccccc34)cc2)c1C [Compound 16g, 4-(2-Cyclohexanyl-quinoline-4-carboxamido)-N-(3,4-dimethyl-isoxazol-5-yl) benzenesulfonamide] | 1.79 |  |  |
| Cc1noc(NS(=O)(=O)c2ccc(NC(=O)c3ccnc(-c4ccc(Br)cc4)c3)cc2)c1C [Compound 16l, 4-(2-(4-Bromophenyl)-pyridine-4-carboxamido)-N-(3,4-dimethyl-isoxazol-5-yl) benzenesulfonamide] | 89.5 |  |  |
| O=C(CCc1ccccc1)Nc1ccc(S(=O)(=O)Nc2cnc3ccccc3n2)cc1 [Compound 17c, 4-(3-Phenyl-propionamido)-N-quinoxalin-2-yl benzenesulfonamide] | 1.06 |  |  |

Reference: paper PMC7119052 (Bioorganic & Medicinal Chemistry, 2005)
